From patent US11446282B2, “Methods of treating mixed dyslipidemia and hypertriglycertdemia” (Kowa Company, Ltd., priority 2017, dated 2022) come the findings set out here.

This test concerns the target T1, PPARα (Homo sapiens, UniProt Q07869).
T1 sequence (Q07869 1-468): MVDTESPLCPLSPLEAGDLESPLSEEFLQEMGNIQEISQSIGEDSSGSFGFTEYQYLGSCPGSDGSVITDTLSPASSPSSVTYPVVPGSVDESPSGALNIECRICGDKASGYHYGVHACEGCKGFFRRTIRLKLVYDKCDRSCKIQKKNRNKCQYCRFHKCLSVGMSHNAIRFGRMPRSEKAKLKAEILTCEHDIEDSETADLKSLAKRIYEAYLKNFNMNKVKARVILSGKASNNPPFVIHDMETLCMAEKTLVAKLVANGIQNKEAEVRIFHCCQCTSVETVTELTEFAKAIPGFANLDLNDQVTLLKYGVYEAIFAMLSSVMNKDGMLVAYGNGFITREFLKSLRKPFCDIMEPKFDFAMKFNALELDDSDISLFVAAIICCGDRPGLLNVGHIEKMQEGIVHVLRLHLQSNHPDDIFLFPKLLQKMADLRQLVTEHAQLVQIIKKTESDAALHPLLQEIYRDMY
Description: PPARα-activating effect (EC50). Type of test: biochemical.

`CC[C@@H](Oc1cccc(CN(CCCOc2ccc(OC)cc2)c2nc3ccccc3o2)c1)C(=O)O` [Pemafibrate, (2R)-2-[3-({1,3-benzoxazol-2-yl[3-(4-methoxyphenoxy)propyl]amino}methyl)phenoxy]butanoic acid]: for the setting “versus fenofibrate”, the “specificity for the PPARα receptor” value is “more specific”. Also, the “times more active than fenofibric acid in terms of the EC50 of the PPARα-activating effect” value (versus fenofibric acid) is “approximately 2500 times”.
